Assay results reported in PubChem BioAssay AID250 (DTP/NCI, 2004).
Values joined by “and” are separate entries in the source; they are usually repeats but may differ in a detail not shown here. Equal values may be shown once. Inconclusive results and toxic doses are left out. The calls were made as follows: active = survival T/C of 150% or more; inactive = T/C below 125% in these data.

Tested on: BDF1 mice, L1210 leukemia sc, survival T/C
Test: NCI In Vivo Anticancer Drug Screen. Data for tumor model L1210 Leukemia (subcutaneous) in B6D2F1 (BDF1) mice
Settings: higher = longer survival
Method in brief: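 Tumors were transplanted into mice, the animals were treated with compound, survival or tumor size was then measured, and treated values were divided by vehicle-control values.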

Measured: T/C

CCCCC(C)(N)C(=O)O (stereo not given)
inactive: endpoint: median survival time, dose: 14.0 mg/kg/injection, schedule: Q01DX Z (sc), vehicle: water 95 % of control | endpoint: median survival time, dose: 23.0 mg/kg/injection, schedule: Q01DX Z (sc), vehicle: water 100 % of control | endpoint: median survival time, dose: 39.0 mg/kg/injection, schedule: Q01DX Z (sc), vehicle: water 100 % of control | endpoint: median survival time, dose: 65.0 mg/kg/injection, schedule: Q01DX Z (sc), vehicle: water 100 % of control | endpoint: median survival time, dose: 108.0 mg/kg/injection, schedule: Q01DX Z (sc), vehicle: water 100 % of control | endpoint: median survival time, dose: 180.0 mg/kg/injection, schedule: Q01DX Z (sc), vehicle: water 100 % of control | endpoint: median survival time, dose: 300.0 mg/kg/injection, schedule: Q01DX Z (sc), vehicle: water 100 % of control

CN(C)c1ccc(/C=C2\C=Cc3ccccc32)cc1
inactive: endpoint: median survival time, dose: 180.0 mg/kg/injection, schedule: Q01DX Z (sc), vehicle: carboxymethylcellulose (CMC) 100 % of control | endpoint: median survival time, dose: 300.0 mg/kg/injection, schedule: Q01DX Z (sc), vehicle: carboxymethylcellulose (CMC) 100 % of control | endpoint: median survival time, dose: 500.0 mg/kg/injection, schedule: Q01DX Z (sc), vehicle: carboxymethylcellulose (CMC) 105 % of control | endpoint: median survival time, dose: 833.0 mg/kg/injection, schedule: Q01DX Z (sc), vehicle: carboxymethylcellulose (CMC) 111 % of control

O=C1OC(C(O)CO)C(O)=C1O (stereo not given)
inactive: endpoint: mean survival time, dose: 0.2 mg/kg/injection, schedule: Q08HX010 (ip), vehicle: other 91 % of control | endpoint: mean survival time, dose: 0.25 mg/kg/injection, schedule: Q08HX010 (ip), vehicle: other 95 % of control | endpoint: mean survival time, dose: 0.3 mg/kg/injection, schedule: Q08HX010 (ip), vehicle: other 93 % of control | endpoint: mean survival time, dose: 0.5 mg/kg/injection, schedule: Q08HX010 (ip), vehicle: other 84 % of control

Nc1nc(SCc2ccccc2)c2[nH]cnc2n1
inactive: endpoint: median survival time, dose: 180.0 mg/kg/injection, schedule: Q01DX Z (sc), vehicle: methylcellulose (MC) 122 % of control | endpoint: median survival time, dose: 300.0 mg/kg/injection, schedule: Q01DX Z (sc), vehicle: methylcellulose (MC) 122 % of control | endpoint: median survival time, dose: 500.0 mg/kg/injection, schedule: Q01DX Z (sc), vehicle: methylcellulose (MC) 111 % of control

O=c1[nH]c(=O)n([C@H]2CCCO2)cc1F
inactive: endpoint: median survival time, dose: 39.0 mg/kg/injection, schedule: Q01DX009 (ip), vehicle: water 107 % of control | endpoint: median survival time, dose: 39.0 mg/kg/injection, schedule: Q01DX009 (sc), vehicle: water 100 % of control | endpoint: median survival time, dose: 65.0 mg/kg/injection, schedule: Q01DX009 (ip), vehicle: water 108 % of control | endpoint: median survival time, dose: 65.0 mg/kg/injection, schedule: Q01DX009 (sc), vehicle: water 109 % of control | endpoint: median survival time, dose: 108.0 mg/kg/injection, schedule: Q04DX003 (ip), vehicle: water 119 % of control | endpoint: median survival time, dose: 108.0 mg/kg/injection, schedule: Q04DX003 (sc), vehicle: water 102 % of control | endpoint: median survival time, dose: 180.0 mg/kg/injection, schedule: Q01DX009 (ip), vehicle: water 120 % of control | endpoint: median survival time, dose: 180.0 mg/kg/injection, schedule: Q01DX009 (sc), vehicle: water 117 % of control | endpoint: median survival time, dose: 180.0 mg/kg/injection, schedule: Q04DX003 (ip), vehicle: water 120 % of control | endpoint: median survival time, dose: 180.0 mg/kg/injection, schedule: Q04DX003 (sc), vehicle: water 110 % of control | endpoint: median survival time, dose: 300.0 mg/kg/injection, schedule: Q01DX009 (ip), vehicle: water 97 % of control | endpoint: median survival time, dose: 300.0 mg/kg/injection, schedule: Q01DX009 (sc), vehicle: water 100 % of control | endpoint: median survival time, dose: 833.0 mg/kg/injection, schedule: Q04DX003 (sc), vehicle: water 106 % of control
active: endpoint: median survival time, dose: 300.0 mg/kg/injection, schedule: Q04DX003 (ip), vehicle: water 152 % of control | endpoint: median survival time, dose: 500.0 mg/kg/injection, schedule: Q04DX003 (sc), vehicle: water 161 % of control | endpoint: median survival time, dose: 833.0 mg/kg/injection, schedule: Q04DX003 (ip), vehicle: water 168 % of control

CC(=O)NC(CCC(=O)C=[N+]=N)C(=O)O (stereo not given)
active: endpoint: median survival time, dose: 0.78 mg/kg/injection, schedule: Q01DX Z (sc), vehicle: water 170 % of control | endpoint: median survival time, dose: 0.86 mg/kg/injection, schedule: Q01DX Z (sc), vehicle: water 155 % of control | endpoint: median survival time, dose: 1.3 mg/kg/injection, schedule: Q01DX Z (sc), vehicle: water 160 % of control | endpoint: median survival time, dose: 1.44 mg/kg/injection, schedule: Q01DX Z (sc), vehicle: water 150 % of control | endpoint: median survival time, dose: 2.16 mg/kg/injection, schedule: Q01DX Z (sc), vehicle: water 150 % of control | endpoint: median survival time, dose: 3.6 mg/kg/injection, schedule: Q01DX Z (sc), vehicle: water 150 % of control | endpoint: median survival time, dose: 6.72 mg/kg/injection, schedule: Q02DX Z (sc), vehicle: water 154 % of control | endpoint: median survival time, dose: 216.0 mg/kg/injection, schedule: Q## X Z (sc), vehicle: water 160 % of control
inactive: endpoint: median survival time, dose: 0.07 mg/kg/injection, schedule: Q#A X Z (sc), vehicle: water 100 % of control | endpoint: median survival time, dose: 0.11 mg/kg/injection, schedule: Q#A X Z (sc), vehicle: water 109 % of control | endpoint: median survival time, dose: 0.14 mg/kg/injection, schedule: Q01DX Z (sc), vehicle: water 95 % of control | endpoint: median survival time, dose: 0.19 mg/kg/injection, schedule: Q01DX Z (sc), vehicle: water 110 % of control | endpoint: median survival time, dose: 0.19 mg/kg/injection, schedule: Q#A X Z (sc), vehicle: water 109 % of control | endpoint: median survival time, dose: 0.24 mg/kg/injection, schedule: Q01DX Z (sc), vehicle: water 108 % of control | endpoint: median survival time, dose: 0.31 mg/kg/injection, schedule: Q01DX Z (sc), vehicle: water 109 % of control and 110 % of control | endpoint: median survival time, dose: 0.31 mg/kg/injection, schedule: Q#A X Z (sc), vehicle: water 122 % of control | endpoint: median survival time, dose: 0.4 mg/kg/injection, schedule: Q01DX Z (sc), vehicle: water 116 % of control | endpoint: median survival time, dose: 0.47 mg/kg/injection, schedule: Q01DX Z (sc), vehicle: water 120 % of control | endpoint: median survival time, dose: 0.52 mg/kg/injection, schedule: Q01DX Z (sc), vehicle: water 109 % of control and 113 % of control | endpoint: median survival time, dose: 0.52 mg/kg/injection, schedule: Q02DX Z (sc), vehicle: water 100 % of control | endpoint: median survival time, dose: 0.86 mg/kg/injection, schedule: Q02DX Z (sc), vehicle: water 104 % of control | endpoint: median survival time, dose: 0.86 mg/kg/injection, schedule: Q## X Z (sc), vehicle: water 100 % of control | endpoint: median survival time, dose: 1.44 mg/kg/injection, schedule: Q02DX Z (sc), vehicle: water 109 % of control | endpoint: median survival time, dose: 1.44 mg/kg/injection, schedule: Q## X Z (sc), vehicle: water 109 % of control | endpoint: median survival time, dose: 2.4 mg/kg/injection, schedule: Q## X Z (sc), vehicle: water 104 % of control | endpoint: median survival time, dose: 3.11 mg/kg/injection, schedule: Q01DX Z (sc), vehicle: water 116 % of control | endpoint: median survival time, dose: 4.0 mg/kg/injection, schedule: Q02DX Z (sc), vehicle: water 118 % of control | endpoint: median survival time, dose: 4.0 mg/kg/injection, schedule: Q## X Z (sc), vehicle: water 113 % of control | endpoint: median survival time, dose: 5.18 mg/kg/injection, schedule: Q01DX Z (sc), vehicle: water 116 % of control | endpoint: median survival time, dose: 6.72 mg/kg/injection, schedule: Q## X Z (sc), vehicle: water 109 % of control | endpoint: median survival time, dose: 8.64 mg/kg/injection, schedule: Q01DX Z (sc), vehicle: water 100 % of control | endpoint: median survival time, dose: 10.0 mg/kg/injection, schedule: Q01DX Z (sc), vehicle: water 120 % of control | endpoint: median survival time, dose: 10.0 mg/kg/injection, schedule: Q## X Z (sc), vehicle: water 110 % of control | endpoint: median survival time, dose: 11.2 mg/kg/injection, schedule: Q## X Z (sc), vehicle: water 109 % of control | endpoint: median survival time, dose: 14.4 mg/kg/injection, schedule: Q01DX Z (sc), vehicle: water 104 % of control | endpoint: median survival time, dose: 17.0 mg/kg/injection, schedule: Q07DX Z (sc), vehicle: water 120 % of control | endpoint: median survival time, dose: 17.0 mg/kg/injection, schedule: Q## X Z (sc), vehicle: water 110 % of control | endpoint: median survival time, dose: 24.0 mg/kg/injection, schedule: Q01DX Z (sc), vehicle: water 100 % of control | endpoint: median survival time, dose: 28.0 mg/kg/injection, schedule: Q07DX Z (sc), vehicle: water 120 % of control | endpoint: median survival time, dose: 28.0 mg/kg/injection, schedule: Q## X Z (sc), vehicle: water 115 % of control | endpoint: median survival time, dose: 40.0 mg/kg/injection, schedule: Q01DX Z (sc), vehicle: water 100 % of control | endpoint: median survival time, dose: 47.0 mg/kg/injection, schedule: Q01DX001 (sc), vehicle: water 115 % of control | endpoint: median survival time, dose: 47.0 mg/kg/injection, schedule: Q07DX Z (sc), vehicle: water 110 % of control | endpoint: median survival time, dose: 47.0 mg/kg/injection, schedule: Q## X Z (sc), vehicle: water 110 % of control and 120 % of control | endpoint: median survival time, dose: 78.0 mg/kg/injection, schedule: Q01DX001 (sc), vehicle: water 120 % of control | endpoint: median survival time, dose: 78.0 mg/kg/injection, schedule: Q07DX Z (sc), vehicle: water 120 % of control | endpoint: median survival time, dose: 78.0 mg/kg/injection, schedule: Q## X Z (sc), vehicle: water 110 % of control and 120 % of control | endpoint: median survival time, dose: 130.0 mg/kg/injection, schedule: Q01DX001 (sc), vehicle: water 120 % of control | endpoint: median survival time, dose: 130.0 mg/kg/injection, schedule: Q07DX Z (sc), vehicle: water 120 % of control | endpoint: median survival time, dose: 216.0 mg/kg/injection, schedule: Q07DX Z (sc), vehicle: water 120 % of control | endpoint: median survival time, dose: 360.0 mg/kg/injection, schedule: Q07DX Z (sc), vehicle: water 120 % of control
